# Values of other authors in article PMC10870435, “A novel complement C3 inhibitor CP40-KK protects against experimental pulmonary arterial hypertension via an inflammasome NLRP3 associated pathway” (Journal of Translational Medicine, 2024).
# Bridge positions count the residues as written; N and C are the ends. Square brackets hold non-standard residues; d marks the D form. Peptide text beside a SMILES is read from it. Trp(1-Me) = Cn1cc(C[C@H](N)C(=O)O)c2ccccc21; NMeI = CC[C@H](C)[C@H](NC)C(=O)O; Sar = CNCC(=O)O
# System: complement C3
# Conditions: cited from earlier work
compound,measurement,value
CC[C@H](C)[C@H](NC(=O)[C@H](N)Cc1ccc(O)cc1)C(=O)N[C@H]1CSSC[C@@H](C(=O)N(C)[C@H](C(=O)N[C@@H](CCCCN)C(=O)N[C@@H](CCCCN)C(N)=O)[C@@H](C)CC)NC(=O)[C@H](CCCNC(=N)N)NC(=O)[C@H](Cc2c[nH]cn2)NC(=O)CN(C)C(=O)[C@H](Cc2c[nH]c3ccccc23)NC(=O)[C@H](CC(=O)O)NC(=O)[C@H](CCC(N)=O)NC(=O)[C@H](Cc2cn(C)c3ccccc23)NC(=O)[C@H](C(C)C)NC1=O [CP40-KK] (H-[dY]ICV[Trp(1-Me)]QDW[Sar]HRC[NMeI]KK-NH2; disulfide 3-12 (inferred)),inhibitory potency relative to CP40,retaining its inhibitory potency
